Experimental data published in patent US20110256241A1, “METHODS AND COMPOSITIONS FOR THE TREATMENT OF CANCER” (TRASLATIONAL CANCER DRUGS PHARMA, S.L., priority 2008, published 2011).
Where two headings read alike, the source gives them in different places.

How the values were obtained:
[1] = system: primary cultures of tumours of patients with NSCLC; assay: Primary cultures of NSCLC tumours, crystal violet quantification; format: cell-based, human; conditions: primary NSCLC tumour cultures, 0-20 μM, 10 days
Experimental: Resected tissues from NSCLC patients were dissociated (Cell dissociation sieve-tissued grinder Kit CD1, SIGMA), and the obtained cells were seeded in 24 well plates (BD, Falcon, Bioscience, San Jose, Calif., USA). […] The final persistent population in each well was quantified by the method of Cristal Violet as previously described (Rodríguez-González, A. et al., Oncogene, 22:8803-8812). […]

[2] = system: H460 cells; assay: Cell proliferation assay (MTT); format: cell-based, human; conditions: then ChoK inhibitor, read-out: IC50 (72 h)
Experimental: All cell lines used in this study were maintained under standard conditions of temperature (37° C.), humidity (95%), and carbon dioxide (5%). Human primary bronchial epithelial cells, NHBE (BEC) (Cambrex, CC-2541) were grown in BEGM (Bronchial Epithelial cell growth media) BulletKit (Cambrex, CC-3170). Human primary mammary epithelial cells, HMEC (Clonetics, CC-2551) were grown in MEBM medium supplemented with a bullet kit (Clonetics, CC-3150). Epithelial non-small lung cancer cells H460 and H1299, and small cell lung cancer cell lines H510 and H82 were maintained in RPMI supplemented with 10% Fetal Bovine Serum (FBS) (Life Technologies, Grand Island, N.Y.).
Cells were seeded on 96-well plates (BD, Falcon, Bioscience, San Jose, Calif., USA) at a density of 6000 cells/well, and incubated for 24 h under standard conditions. Then, cells were treated with different concentrations of the ChoK inhibitors (quadruplicates of each concentration) and maintained for 72 hours. […] Absorbance is read at 595 nm in a VersaMax Microplate Reader (Molecular Devices, Sunnyvale, Calif., USA). For sensitization with acid ceramidase inhibitor, cells were pre-treated […] with the correspondent IC50 for NOE before treatment with ChoK inhibitors. NOE (N-Oleoyl ethanolamine) was obtained from Calbiochem (La Jolla, Calif., USA).
Thus, disruption in the levels of acid ceramidase may allow ChoK inhibitors to have a better effect in these cells. To verify this hypothesis, we used the previously characterized acid ceramidase inhibitor, N-Oleoylethanolamine (NOE) (Grijalvo S., Chem Phys Lipids. 2006; 144:69-84), to investigate if the inhibition of acid ceramidase sensitizes tumour cell lines to ChoK inhibitors. To that end, H460 cells were pre-treated with NOE for three hours to inhibit acid ceramidase.
H460 cells were pre-treated with these compounds for three hours to inhibit ceramidases. […] Furthermore, the combined use of ChoK inhibitors and acid ceramidase inhibitors provides a further stronger anticancer activity.

[3] = system: SW620 cells; assay: MTT cytotoxicity, ChoKI and TRAIL
Experimental: For this purpose, cells were seeded in 96 multiwell plates at a density of 1×10^4 cells/well 24 hours before treatment. Cells were treated with different concentrations of RSM-932A (ChoKI) or TRAIL for different times and the cell proliferation was quantified using the MTT [3-(4,5-Dimethylthiazol-2-yl)-2,5-Diphenyltetrazolium Bromide] colorimetric assay.

[4] = system: H460 xenografts; assay: NSCLC xenografts, in vivo tumor growth inhibition; conditions: FIG. 7B; combination given sequentially
Experimental: Indicated cells were resuspended in DMEM just before inoculation (10^6 cells/0.1 ml), and injected subcutaneously in nu/nu immunosuppressed mice. Mice were kept under standard laboratory conditions according to the guidelines of the Spanish Government. When tumours reached a mean volume of 0.1 cm^3, mice were randomized to control and treated groups. Treatments with the antitumoral agents (and vehicle for control mice) were performed i.p. with following the indicated schedules. Tumors were monitored three times a week by measuring the major (D) and minor (d) diameters, and tumour volume was calculated by V=(D*d^2)/2. Statistical analysis of significant changes in tumour growth was calculated using SPSS software v. 13.0.

[5] = system: DLD-1 colon cancer cells; assay: QT-PCR validation of 5-FU metabolization pathway genes; format: cell-based, human; design: key: DR (Down-regulation); UR (Up-regulation)
Experimental: (§1) 1 μg of RNA was used to generate cDNA using High-Capacity cDNA Archive Kit (Applied Biosystems), and quantitative real-time PCR was carried out in triplicate using the ABI PRISM 7700 Sequence Detector (Applied Biosystems). GAPDH and 18S ribosomal mRNA were amplified as internal controls. Probes used for amplification were from Applied Biosystems as Taqman Gene Expression Assays (ASAH1: HS00602774—M1 Taqman Probe, ASAH2: HS00184096_M1 Taqman Probe and ASAH3: HS00370322_M1 Taqman Probe, DUT: HS00798995_S1 Taqman Probe, TYMS: HS00426591_M1 Taqman Probe, UPP1: HS00427695—M1 Taqman Probe, RRM2: HS00357247_G1 Taqman Probe). The 2-^ΔΔCt method was used (Livak K J., Methods. 2001; 25:402-8) to calculate the relative expression of each gene.

[6] = system: SW62 colon cancer cells; assay: as above; format: cell-based, human; design: key: DR (Down-regulation); UR (Up-regulation)
Experimental: as §1

[7] = system: HT29 colon cancer cells; assay: as above; format: cell-based, human; design: key: DR (Down-regulation); UR (Up-regulation)
Experimental: as §1

[8] = system: H460 cells; assay: Affymetrix gene expression analysis of 5-FU metabolization pathway; format: cell-based, human; design: key to RRM2 (Ribonucleotide Reductase) gene expression / TYMS (Thymidylate synthetase) gene expression / DUT (Deoxyuridine triphosphatase) gene expression: Signal Log Ratio, base 2 (1.0 = 2-fold increase, 0 = no change)
Experimental: The RNAs from the biopsies selected were isolated for microarrays and QT-PCR, using RNeasy Mini Kit (QIAGEN, Hilden, Germany) following the instructions of the manufactures. Samples were prepared and the array hybridized according to the Affymetrix GeneChip Expression Analysis Technical Manual. Hybridization to Affymetrix U133plus2 GeneChips (54,614 probe sets, representing 47,000 transcripts), staining, washing and scanning procedures were carried out at the Genomic Facility in the National Center of Biotechnology (Madrid, Spain) as described in www.affymetrix.com (Affymetrix, Santa Clara, Calif.). The Signal Log Ratio estimates the magnitude and direction of change of a transcript. The log scale used is base 2, thus a Signal Log Ratio of 1.0 indicates an increase of the transcript level by 2 fold and −1.0 indicates a decrease by 2 fold. A Signal Log Ratio of zero would indicate no change.
With the aim of further investigating the mechanism of ChoKIs sensitization to the antitumoral effect of 5-FU, a gene expression analysis of the 5-FU-metabolisation pathway was performed in H460 cells treated at different times with MN58b and RSM-932A using affymetrix technology.

[9] = system: DLD-1 cells; assay: Apoptosis detection by flow cytometry, Annexin V & IP; format: cell-based, human; conditions: DLD-1, 7 hours treatment
Experimental: Cell death was analysed by flow cytometry using de Aposcreen Annexin V Apoptosis Kit (Southern Biotech) according to manufacturer procedures. Cells were seeded at 4×10^5 cells per well in six-well. Twenty-four hours later, cells were treated with the indicated compounds. Cells were rinsed twice in cold PBS and after removing it cells were resuspended in cold 1× binding buffer to a concentration from 1×10^6 to 1×10^7 cells/mL. 100 μl of these cells were collected in a flow cytometry tube and 10 μl of Annexin V were added. After gently vortexing, tubes were incubated for 15 minutes on ice, protected from light. Without washing, 380 μl of 1× binding buffer were added to each sample prior to 10 μl of propidium iodine. Cells were immediately analysed by flow cytometry.
The synergism observed in vitro was also analysed by flow cytometry using Annexin V & IP staining to distinguish between apoptosis and necrosis or late apoptosis. […] When DLD-1 cells are treated with TRAIL alone there is a 35% of apoptosis. In combination tumour cell death is amplified up to 50%. When DLD-1 are treated with RSM-932A (TCD-717) in combination with TRAIL there is a 55% increase in tumour cell death but mainly the necrotic or late apoptosis population because RSM-932A (TCD-717) has an effect that is faster than MN58. […]

Nc1ccn([C@@H]2O[C@H](CO)[C@@H](O)C2(F)F)c(=O)n1 [Gemcitabine, gemcitabine]
RESISTANT (number of samples) [1]: 34
SENSITIVES (number of samples) [1]: 18

CCCCCCCCCCCCCC(=O)N[C@H](C)[C@@H](O)c1ccccc1 [DEM, (1S,2R)-N-myristoylamino-phenylpropanol-1, reference compound]
IC 50 ([2]; combinations: pre-treated with ceramidase inhibitor for three hours): 31 µM

CCC1=C[C@@H]2CN(C1)Cc1c([nH]c3ccccc13)[C@@](C(=O)OC)(c1cc3c(cc1OC)N(C)[C@H]1[C@@](O)(C(=O)OC)[C@H](OC(C)=O)[C@]4(CC)C=CCN5CC[C@]31[C@@H]54)C2 [Vinolrelbine, vinorelbine]
RESISTANT (number of samples) [1]: 24
SENSITIVES (number of samples) [1]: 15

CN(c1ccc(Cl)cc1)c1cc[n+](Cc2ccc(-c3ccc(C[n+]4ccc(N(C)c5ccc(Cl)cc5)c5ccccc54)cc3)cc2)c2ccccc12.[Br-].[Br-] [RSM-932A, 1,1′-(biphenyl-4, 4′-diylmethylene) bis[4-(4-chloro-N-methylanilino-)quinolinium]dibromide]
cytotoxicity, percentage of cell death ([3]; SW620, combination: ChoKI pre-treatment 2 hours, then TRAIL 24 h): 9%
Statistical significance (p), tumour growth [4]: 0.157
DUT expression [5]: DR
RRM expression [5]: DR
TYM expression [5]: DR
UPP expression [5]: UR
DUT expression [6]: DR
RRM expression [6]: DR
TYM expression [6]: DR
UPP expression [6]: UR
DUT expression [7]: DR
RRM expression [7]: DR
TYM expression [7]: DR
UPP expression [7]: UR
DUT (Deoxyuridine triphosphatase) gene expression ([8]; H460, 9 h): −1.12
RRM2 (Ribonucleotide Reductase) gene expression ([8]; H460, 9 h): −1.39
TYMS (Thymidylate synthetase) gene expression ([8]; H460, 9 h): −1.03
UPP1 (Uridine phosphorylase 1) gene expression ([8]; H460, 9 h): +1.83
DUT (Deoxyuridine triphosphatase) gene expression ([8]; H460, 24 h): −2.08
RRM2 (Ribonucleotide Reductase) gene expression ([8]; H460, 24 h): −3.69
TYMS (Thymidylate synthetase) gene expression ([8]; H460, 24 h): −2.73
UPP1 (Uridine phosphorylase 1) gene expression ([8]; H460, 24 h): +2.48

CCCCCCCCCCCCCC(=O)N[C@H](CO)[C@H](O)c1ccc([N+](=O)[O-])cc1 [CAY, (1R,2R)-N-myristoylamino-4′-nitro-phenylpropandio1-1,3, reference compound]
IC 50 ([2]; Homo sapiens, NCI-H460, combinations: pre-treated with ceramidase inhibitor for three hours): 28 µM

CC(=O)O[C@H]1C(=O)[C@@]2(C)[C@H]([C@H](OC(=O)c3ccccc3)[C@]3(O)C[C@H](OC(=O)[C@H](O)[C@@H](NC(=O)c4ccccc4)c4ccccc4)C(C)=C1C3(C)C)[C@]1(OC(C)=O)CO[C@@H]1C[C@@H]2O [Taxol]
RESISTANT (number of samples) [1]: 35
SENSITIVES (number of samples) [1]: 27

B1: TRAIL: extracellular domain of human TRAIL (amino acids 95-281) (protein, listed as Homo sapiens)
chain: TSEETISTVQEKQQNISPLVRERGPQRVAAHITGTRGRSNTLSSPNSKNEKALGRKINSWESSRSGHSFLSNLHLRNGELVIHEKGFYYIYSQTYFRFQEEIKENTKNDKQMVQYIYKYTSYPDPILLMKSARNSCWSKDAEYGLYSIYQGGIFELKENDRIFVSVTNEHLIDMDHEASFFGAFLVG
apoptosis [9]: 35%
sensitivity to TRAIL ([3]; SW620, FIG. 8B): nearly resistant
